# The supplement of paper PMC11208160
# Assay: recombinant barcode read abundance after kanamycin selection (control-corrected) (log10(CPM+1)); higher = more efficient recombination; sequences stand for … in AGTGCAGAGAAAATCGGCCAGTTTTCTCTGCCTGCAGTCCGCATGCCGT…ATTTATGCAGCGGACTGCCTTTCTCCCAAAGTGATAAACCGGACAGTATCATGGACCGGTTTTCCCGGTAATCCGTATTTGCAAGGTTGGTTTCACT; site = the 11-nt target
# Experimental: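 Same pooled E. coli target screen (IS621 bridge recombinase, kanamycin selection, control-corrected CPM, mean of 2 biological replicates). Here the two core-binding nucleotides of the LTG and RTG of the bridge RNA target-binding loop are mutated. Target and donor CT cores are held constant, and the other 9 guide positions match the target. The target is read from the library oligo sequence. Molecule = full bridge RNA written as DNA: nt 1-80 from the library oligo, rest WT scaffold.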
row,Sequence,recombinant barcode read abundance (log10)
1,"AAACATGCTTGGGTTCTAACCTGTTGCCTGT [AAACATGCTAG_LTGcore_CT_RTGcore_AC] (site AAACATGCTAG) (LTG core: CT, RTG core: AC)",1.55
2,"AAACATGCTTGGGTTCTAACCTGTTGCCTTC [AAACATGCTAG_LTGcore_CT_RTGcore_GA] (site AAACATGCTAG) (LTG core: CT, RTG core: GA)",0.572
3,"AAACATGCTTGGGTTCTAACCTGTTGCCTTG [AAACATGCTAG_LTGcore_CT_RTGcore_CA] (site AAACATGCTAG) (LTG core: CT, RTG core: CA)",1.17
4,"AAACATGGATGGGTTCTAACCTGTTGCCTTC [AAACATGCTAG_LTGcore_GA_RTGcore_GA] (site AAACATGCTAG) (LTG core: GA, RTG core: GA)",0.0557
5,"AAACATGGTTGGGTTCTAACCTGTTGCCTAG [AAACATGCTAG_LTGcore_GT_RTGcore_CT] (site AAACATGCTAG) (LTG core: GT, RTG core: CT)",0.108
6,"AAACATGTTTGGGTTCTAACCTGTTGCCTAG [AAACATGCTAG_LTGcore_TT_RTGcore_CT] (site AAACATGCTAG) (LTG core: TT, RTG core: CT)",0.0409
7,"ACGGGACAATGGGTTCTAACCTGTTGCAGAG [ACGGGACCTCT_LTGcore_AA_RTGcore_CT] (site ACGGGACCTCT) (LTG core: AA, RTG core: CT)",0.0324
8,"ACGGGACAATGGGTTCTAACCTGTTGCAGTT [ACGGGACCTCT_LTGcore_AA_RTGcore_AA] (site ACGGGACCTCT) (LTG core: AA, RTG core: AA)",0.298
9,"ACGGGACAGTGGGTTCTAACCTGTTGCAGCT [ACGGGACCTCT_LTGcore_AG_RTGcore_AG] (site ACGGGACCTCT) (LTG core: AG, RTG core: AG)",0.237
10,"ACGGGACCCTGGGTTCTAACCTGTTGCAGGG [ACGGGACCTCT_LTGcore_CC_RTGcore_CC] (site ACGGGACCTCT) (LTG core: CC, RTG core: CC)",1.21
11,"ACGGGACCTTGGGTTCTAACCTGTTGCAGAC [ACGGGACCTCT_LTGcore_CT_RTGcore_GT] (site ACGGGACCTCT) (LTG core: CT, RTG core: GT)",0.9
12,"ACGGGACCTTGGGTTCTAACCTGTTGCAGAT [ACGGGACCTCT_LTGcore_CT_RTGcore_AT] (site ACGGGACCTCT) (LTG core: CT, RTG core: AT)",1.4
13,"ACGGGACCTTGGGTTCTAACCTGTTGCAGGA [ACGGGACCTCT_LTGcore_CT_RTGcore_TC] (site ACGGGACCTCT) (LTG core: CT, RTG core: TC)",0.528
14,"ACGGGACGATGGGTTCTAACCTGTTGCAGAG [ACGGGACCTCT_LTGcore_GA_RTGcore_CT] (site ACGGGACCTCT) (LTG core: GA, RTG core: CT)",0.81
15,"ACGGGACGCTGGGTTCTAACCTGTTGCAGAG [ACGGGACCTCT_LTGcore_GC_RTGcore_CT] (site ACGGGACCTCT) (LTG core: GC, RTG core: CT)",0.257
16,"ACGGGACGGTGGGTTCTAACCTGTTGCAGAG [ACGGGACCTCT_LTGcore_GG_RTGcore_CT] (site ACGGGACCTCT) (LTG core: GG, RTG core: CT)",0.14
17,"ACGGGACTGTGGGTTCTAACCTGTTGCAGAG [ACGGGACCTCT_LTGcore_TG_RTGcore_CT] (site ACGGGACCTCT) (LTG core: TG, RTG core: CT)",0.397
18,"ACGGGACTGTGGGTTCTAACCTGTTGCAGCA [ACGGGACCTCT_LTGcore_TG_RTGcore_TG] (site ACGGGACCTCT) (LTG core: TG, RTG core: TG)",0.179
19,"ACGGGACTTTGGGTTCTAACCTGTTGCAGAA [ACGGGACCTCT_LTGcore_TT_RTGcore_TT] (site ACGGGACCTCT) (LTG core: TT, RTG core: TT)",0.0398
20,"ACGGGACTTTGGGTTCTAACCTGTTGCAGAG [ACGGGACCTCT_LTGcore_TT_RTGcore_CT] (site ACGGGACCTCT) (LTG core: TT, RTG core: CT)",0.0241
21,"AGGAGGTAATGGGTTCTAACCTGTTGCCTAG [AGGAGGTCTAG_LTGcore_AA_RTGcore_CT] (site AGGAGGTCTAG) (LTG core: AA, RTG core: CT)",0.278
22,"AGGAGGTAGTGGGTTCTAACCTGTTGCCTAG [AGGAGGTCTAG_LTGcore_AG_RTGcore_CT] (site AGGAGGTCTAG) (LTG core: AG, RTG core: CT)",0.122

row,Sequence,recombinant barcode read abundance (log10)
1,"AGGAGGTCTTGGGTTCTAACCTGTTGCCTGC [AGGAGGTCTAG_LTGcore_CT_RTGcore_GC] (site AGGAGGTCTAG) (LTG core: CT, RTG core: GC)",0.814
2,"AGGAGGTCTTGGGTTCTAACCTGTTGCCTGG [AGGAGGTCTAG_LTGcore_CT_RTGcore_CC] (site AGGAGGTCTAG) (LTG core: CT, RTG core: CC)",0.551
3,"AGGAGGTGATGGGTTCTAACCTGTTGCCTAG [AGGAGGTCTAG_LTGcore_GA_RTGcore_CT] (site AGGAGGTCTAG) (LTG core: GA, RTG core: CT)",0.417
4,"AGGAGGTTATGGGTTCTAACCTGTTGCCTAG [AGGAGGTCTAG_LTGcore_TA_RTGcore_CT] (site AGGAGGTCTAG) (LTG core: TA, RTG core: CT)",0.0987
5,"AGGAGGTTTTGGGTTCTAACCTGTTGCCTAG [AGGAGGTCTAG_LTGcore_TT_RTGcore_CT] (site AGGAGGTCTAG) (LTG core: TT, RTG core: CT)",0.0313
6,"AGGCCTCCATGGGTTCTAACCTGTTGCCTAG [AGGCCTCCTAG_LTGcore_CA_RTGcore_CT] (site AGGCCTCCTAG) (LTG core: CA, RTG core: CT)",0.44
7,"AGGCCTCCTTGGGTTCTAACCTGTTGCCTAG [AGGCCTCCTAG_LTGcore_CT_RTGcore_CT] (site AGGCCTCCTAG) (LTG core: CT, RTG core: CT)",1.32
8,"AGGCCTCCTTGGGTTCTAACCTGTTGCCTCG [AGGCCTCCTAG_LTGcore_CT_RTGcore_CG] (site AGGCCTCCTAG) (LTG core: CT, RTG core: CG)",0.401
9,"AGGCCTCCTTGGGTTCTAACCTGTTGCCTTT [AGGCCTCCTAG_LTGcore_CT_RTGcore_AA] (site AGGCCTCCTAG) (LTG core: CT, RTG core: AA)",0.116
10,"AGGCCTCGATGGGTTCTAACCTGTTGCCTAG [AGGCCTCCTAG_LTGcore_GA_RTGcore_CT] (site AGGCCTCCTAG) (LTG core: GA, RTG core: CT)",0.24
11,"AGGCCTCGTTGGGTTCTAACCTGTTGCCTAG [AGGCCTCCTAG_LTGcore_GT_RTGcore_CT] (site AGGCCTCCTAG) (LTG core: GT, RTG core: CT)",0.148
12,"AGGCCTCTGTGGGTTCTAACCTGTTGCCTAG [AGGCCTCCTAG_LTGcore_TG_RTGcore_CT] (site AGGCCTCCTAG) (LTG core: TG, RTG core: CT)",0.11
13,"AGGCGGGAGTGGGTTCTAACCTGTTGCGGCT [AGGCGGGCTCC_LTGcore_AG_RTGcore_AG] (site AGGCGGGCTCC) (LTG core: AG, RTG core: AG)",0.0482
14,"AGGCGGGATTGGGTTCTAACCTGTTGCGGAG [AGGCGGGCTCC_LTGcore_AT_RTGcore_CT] (site AGGCGGGCTCC) (LTG core: AT, RTG core: CT)",0.447
15,"AGGCGGGATTGGGTTCTAACCTGTTGCGGAT [AGGCGGGCTCC_LTGcore_AT_RTGcore_AT] (site AGGCGGGCTCC) (LTG core: AT, RTG core: AT)",0.178
16,"AGGCGGGCTTGGGTTCTAACCTGTTGCGGCA [AGGCGGGCTCC_LTGcore_CT_RTGcore_TG] (site AGGCGGGCTCC) (LTG core: CT, RTG core: TG)",0.0958
17,"AGGCGGGCTTGGGTTCTAACCTGTTGCGGCT [AGGCGGGCTCC_LTGcore_CT_RTGcore_AG] (site AGGCGGGCTCC) (LTG core: CT, RTG core: AG)",0.172
18,"AGGCGGGCTTGGGTTCTAACCTGTTGCGGTA [AGGCGGGCTCC_LTGcore_CT_RTGcore_TA] (site AGGCGGGCTCC) (LTG core: CT, RTG core: TA)",0.138
19,"AGGCGGGCTTGGGTTCTAACCTGTTGCGGTG [AGGCGGGCTCC_LTGcore_CT_RTGcore_CA] (site AGGCGGGCTCC) (LTG core: CT, RTG core: CA)",0.201
20,"AGGCGGGGATGGGTTCTAACCTGTTGCGGAG [AGGCGGGCTCC_LTGcore_GA_RTGcore_CT] (site AGGCGGGCTCC) (LTG core: GA, RTG core: CT)",0.555
21,"AGGCGGGTCTGGGTTCTAACCTGTTGCGGAG [AGGCGGGCTCC_LTGcore_TC_RTGcore_CT] (site AGGCGGGCTCC) (LTG core: TC, RTG core: CT)",0.95
22,"AGGCGGGTGTGGGTTCTAACCTGTTGCGGCA [AGGCGGGCTCC_LTGcore_TG_RTGcore_TG] (site AGGCGGGCTCC) (LTG core: TG, RTG core: TG)",0.0694
